Results published in patent US9587471B2, “Controlling bioavailability of nutrient additions in subsurface formations” (E I DU PONT DE NEMOURS AND COMPANY, priority 2008, dated 2017).

Experiments:
Type in all cases: cell-based
[1] = test system: Pseudomonas stutzeri strain LH4:15 (ATCC PTA-8823); assay: Aerobic growth response (turbidity) to varying concentrations of industrial preservatives;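 on growth (turbidity): single plus means slight turbidity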
Description: (§1) Typically cells were grown at a temperature in the range of about 25° C. to about 40° C. in an appropriate medium.
Pseudomonas stutzeri strain LH4:15 (ATCC PTA-8823) was grown as outlined in Example 1. Various preservatives commonly used in the food, cosmetic, and water treatment industries were tested for their inhibitory effect at various concentrations (Table 2). Growth was monitored visually and positive growth was indicated by moderate to heavy turbidity.

[2] = test system: Pseudomonas stutzeri strain LH4:15 (ATCC PTA-8823); assay: Anaerobic growth and survival: biocidal versus biostatic inhibition; conditions: for change in Log cell number: day 0 vs day 7, anaerobic; for Final anaerobic vial OD: starting OD600 = 0.05
Description: In this invention, the anaerobic growth and survival was tested in 20 ml crimp-capped anaerobic vials, using a complete nutrient medium of the following composition: Na2HPO4.7H2O, 1.4 g/L, KH2PO4, 0.69 g/L, NH4Cl, 0.5 g/L, MgSO4.7H2O, 0.1/L g, SL-10 trace metals, 10 ml, NaCl, 7.5 g/L, NaHCO3, 7.2 g/L, sodium nitrate, 12 g/L, Na lactate, 7 g/L, yeast extract, 10 mg/L, pH 7.3-7.8.
The anaerobic growth and survival was tested as outlined above. […] Vials were inoculated using an overnight aerobic culture of Pseudomonas stutzeri strain LH4:15 (ATCC PTA-8823) in Luria Bertani medium (LB, Mediatech Inc., Herndon, Va.,) at a final OD600 of 0.05. Within 2 hours of inoculation, serial dilutions from each treatment vial were made into aerobic LB medium to determine the cell numbers at Day 0. After approximately 24 hours cell numbers were estimated by noting the highest positive dilution based on the presence or absence of turbidity in dilutions of 10^−1 to 10^−11 in the serial dilution plates. Cell numbers on Day 0 and Day 7 were measured to obtain a survival estimate during inhibitor exposure.

[3] = test system: Pseudomonas stutzeri strain LH4:15, ATCC PTA-8823; assay: Aerobic growth response (turbidity) to varying concentrations of potential microbial nutrients; conditions: for concentration at which microbial growth was inhibited: aerobic growth at 30° C. On growth response (turbidity): key: − = no turbidity; + = slight turbidity; ++ = moderate to heavy turbidity.
Description: as §1
Additional potential microbial nutrients were added at various concentrations as outlined in Table 1. Growth was monitored visually with positive growth indicated by moderate to heavy turbidity.

[4] = 10 g/L, 120 hours of incubation
[5] = 20 g/L, 120 hours of incubation
[6] = 50 g/L, 120 hours of incubation
[7] = 100 g/L, 24 hours of incubation
[8] = 100 g/L, 48 hours of incubation
[9] = 100 g/L, 120 hours of incubation
[10] = 200 g/L, 24 hours of incubation
[11] = 200 g/L, 48 hours of incubation
[12] = 200 g/L, 120 hours of incubation
[13] = 0.05 g/L, 24 hours of incubation
[14] = 0.05 g/L, 48 hours of incubation
[15] = 0.05 g/L, 120 hours of incubation
[16] = 0.5 g/L, 24 hours of incubation
[17] = 0.5 g/L, 48 hours of incubation
[18] = 0.5 g/L, 120 hours of incubation

## CN(C)C(=S)[S-].[Na+] [sodium dithiodimethyl carbamate]
[1]; 0.1 g/L
  growth (turbidity): ++
[1]; 0.2 g/L
  growth (turbidity): ++
[1]; 0.3 g/L
  growth (turbidity): −
[1]; 0.5 g/L
  growth (turbidity): −
[1]; 0.8 g/L
  growth (turbidity): −
[1]; 1 g/L
  growth (turbidity): −
[1]; stated 'as illustrated in Example 2'
  concentration that must be reached before inhibition of microbial growth ends: < 0.1 g/L

## Oc1ccccc1 [phenol]
[1]; 0.01 g/L
  growth (turbidity): ++
[1]; 0.05 g/L
  growth (turbidity): ++
[1]; 0.1 g/L
  growth (turbidity): ++
[1]; 0.5 g/L
  growth (turbidity): ++
[1]; 1 g/L
  growth (turbidity): ++
[1]; 10 g/L
  growth (turbidity): −
[1]; 50 g/L
  growth (turbidity): −

## [Cl-].[Na+] [NaCl]
[2]; 50 g/L
  change in Log cell number: −1
  Final anaerobic vial OD: 0.08
[2]; 80 g/L
  change in Log cell number: −3
  Final anaerobic vial OD: 0.11
[2]; 100 g/L
  change in Log cell number: −1
  Final anaerobic vial OD: 0.05
[2]; 200 g/L
  change in Log cell number: −2
  Final anaerobic vial OD: 0.03
[2]; 400 g/L
  change in Log cell number: −4
  Final anaerobic vial OD: 0.03

## O=[N+]([O-])[O-].[Na+] [NaNO3, sodium nitrate]
[3]; 10 g/L, 24 hours of incubation
  Growth response (turbidity): ++
[3]; 10 g/L, 48 hours of incubation
  Growth response (turbidity): ++
[3]; [4]
  Growth response (turbidity): ++
[3]; 20 g/L, 24 hours of incubation
  Growth response (turbidity): ++
[3]; 20 g/L, 48 hours of incubation
  Growth response (turbidity): ++
[3]; [5]
  Growth response (turbidity): ++
[3]; 50 g/L, 24 hours of incubation
  Growth response (turbidity): −
[3]; 50 g/L, 48 hours of incubation
  Growth response (turbidity): +
[3]; [6]
  Growth response (turbidity): ++
[3]; [7]
  Growth response (turbidity): −
[3]; [8]
  Growth response (turbidity): −
[3]; [9]
  Growth response (turbidity): −
[3]; [10]
  Growth response (turbidity): −
[3]; [11]
  Growth response (turbidity): −
[3]; [12]
  Growth response (turbidity): −
[3]
  concentration at which microbial growth was inhibited: ≥ 100 g/L
[2]; 50 g/L
  change in Log cell number: −1
  Final anaerobic vial OD: 0.06
[2]; 80 g/L
  change in Log cell number: 0
  Final anaerobic vial OD: 0.03
[2]; 100 g/L
  change in Log cell number: −2
  Final anaerobic vial OD: 0.02
[2]; 200 g/L
  change in Log cell number: −6
  Final anaerobic vial OD: 0.03
[2]; 400 g/L
  change in Log cell number: −5
  Final anaerobic vial OD: 0.03

## CCCCCCCCO [Octanol]
[3]; 0.001 g/L, 24 hours of incubation
  Growth response (turbidity): ++
[3]; 0.001 g/L, 48 hours of incubation
  Growth response (turbidity): ++
[3]; 0.001 g/L, 120 hours of incubation
  Growth response (turbidity): ++
[3]; 0.005 g/L, 24 hours of incubation
  Growth response (turbidity): ++
[3]; 0.005 g/L, 48 hours of incubation
  Growth response (turbidity): ++
[3]; 0.005 g/L, 120 hours of incubation
  Growth response (turbidity): ++
[3]; 0.01 g/L, 24 hours of incubation
  Growth response (turbidity): ++
[3]; 0.01 g/L, 48 hours of incubation
  Growth response (turbidity): ++
[3]; 0.01 g/L, 120 hours of incubation
  Growth response (turbidity): ++
[3]; [13]
  Growth response (turbidity): ++
[3]; [14]
  Growth response (turbidity): ++
[3]; [15]
  Growth response (turbidity): ++
[3]; 0.25 g/L, 24 hours of incubation
  Growth response (turbidity): −
[3]; 0.25 g/L, 48 hours of incubation
  Growth response (turbidity): −
[3]; 0.25 g/L, 120 hours of incubation
  Growth response (turbidity): −
[3]; [16]
  Growth response (turbidity): −
[3]; [17]
  Growth response (turbidity): −
[3]; [18]
  Growth response (turbidity): −
[2]; 0.05 g/L
  change in Log cell number: 0
  Final anaerobic vial OD: 0.28
[2]; 0.1 g/L
  change in Log cell number: −1
  Final anaerobic vial OD: 0.4
[2]; 0.2 g/L
  change in Log cell number: 0
  Final anaerobic vial OD: 0.54
[2]; 0.25 g/L
  change in Log cell number: −1
  Final anaerobic vial OD: 0.4
[2]; 0.5 g/L
  change in Log cell number: −1
  Final anaerobic vial OD: 0.01
[2]; judged by OD600 and cell killing, Table 3
  effectiveness of the inhibitor in words: ineffective except at the highest concentrations

## NC(N)=O [Urea]
[3]; 10 g/L, 24 hours of incubation
  Growth response (turbidity): ++
[3]; 10 g/L, 48 hours of incubation
  Growth response (turbidity): ++
[3]; [4]
  Growth response (turbidity): ++
[3]; 20 g/L, 24 hours of incubation
  Growth response (turbidity): ++
[3]; 20 g/L, 48 hours of incubation
  Growth response (turbidity): ++
[3]; [5]
  Growth response (turbidity): ++
[3]; 50 g/L, 24 hours of incubation
  Growth response (turbidity): −
[3]; 50 g/L, 48 hours of incubation
  Growth response (turbidity): −
[3]; [6]
  Growth response (turbidity): −
[3]; [7]
  Growth response (turbidity): −
[3]; [8]
  Growth response (turbidity): −
[3]; [9]
  Growth response (turbidity): −
[3]; [10]
  Growth response (turbidity): −
[3]; [11]
  Growth response (turbidity): −
[3]; [12]
  Growth response (turbidity): −
[3]
  concentration at which microbial growth was inhibited: ≥ 50 g/L
[2]; 20 g/L
  change in Log cell number: −1
  Final anaerobic vial OD: 0.2
[2]; 30 g/L
  change in Log cell number: −1
  Final anaerobic vial OD: 0.13
[2]; 50 g/L
  change in Log cell number: −1
  Final anaerobic vial OD: 0.03
[2]; 100 g/L
  change in Log cell number: −1
  Final anaerobic vial OD: 0.02
[2]; 200 g/L
  change in Log cell number: Dead
  Final anaerobic vial OD: 0.01
[2]; 300 g/L
  change in Log cell number: Dead
  Final anaerobic vial OD: 0.01

## CCO [Ethanol]
[3]; [13]
  Growth response (turbidity): ++
[3]; [14]
  Growth response (turbidity): ++
[3]; [15]
  Growth response (turbidity): ++
[3]; 0.1 g/L, 24 hours of incubation
  Growth response (turbidity): ++
[3]; 0.1 g/L, 48 hours of incubation
  Growth response (turbidity): ++
[3]; 0.1 g/L, 120 hours of incubation
  Growth response (turbidity): ++
[3]; [16]
  Growth response (turbidity): ++
[3]; [17]
  Growth response (turbidity): ++
[3]; [18]
  Growth response (turbidity): ++
[3]; 1 g/L, 24 hours of incubation
  Growth response (turbidity): ++
[3]; 1 g/L, 48 hours of incubation
  Growth response (turbidity): ++
[3]; 1 g/L, 120 hours of incubation
  Growth response (turbidity): ++
[3]; 10 g/L, 24 hours of incubation
  Growth response (turbidity): ++
[3]; 10 g/L, 48 hours of incubation
  Growth response (turbidity): ++
[3]; [4]
  Growth response (turbidity): ++
[3]; 20 g/L, 24 hours of incubation
  Growth response (turbidity): +
[3]; 20 g/L, 48 hours of incubation
  Growth response (turbidity): ++
[3]; [5]
  Growth response (turbidity): ++
[3]; 50 g/L, 24 hours of incubation
  Growth response (turbidity): −
[3]; 50 g/L, 48 hours of incubation
  Growth response (turbidity): −
[3]; [6]
  Growth response (turbidity): −

## OCC(O)CO [Glycerol]
[3]; 10 g/L, 24 hours of incubation
  Growth response (turbidity): ++
[3]; 10 g/L, 48 hours of incubation
  Growth response (turbidity): ++
[3]; [4]
  Growth response (turbidity): ++
[3]; 20 g/L, 24 hours of incubation
  Growth response (turbidity): ++
[3]; 20 g/L, 48 hours of incubation
  Growth response (turbidity): ++
[3]; [5]
  Growth response (turbidity): ++
[3]; 50 g/L, 24 hours of incubation
  Growth response (turbidity): ++
[3]; 50 g/L, 48 hours of incubation
  Growth response (turbidity): ++
[3]; [6]
  Growth response (turbidity): ++
[3]; [7]
  Growth response (turbidity): ++
[3]; [8]
  Growth response (turbidity): ++
[3]; [9]
  Growth response (turbidity): ++
[3]; [10]
  Growth response (turbidity): −
[3]; [11]
  Growth response (turbidity): −
[3]; [12]
  Growth response (turbidity): −

## OCCO [Ethylene glycol]
[3]; 10 g/L, 24 hours of incubation
  Growth response (turbidity): ++
[3]; 10 g/L, 48 hours of incubation
  Growth response (turbidity): ++
[3]; [4]
  Growth response (turbidity): ++
[3]; 20 g/L, 24 hours of incubation
  Growth response (turbidity): ++
[3]; 20 g/L, 48 hours of incubation
  Growth response (turbidity): ++
[3]; [5]
  Growth response (turbidity): ++
[3]; 50 g/L, 24 hours of incubation
  Growth response (turbidity): ++
[3]; 50 g/L, 48 hours of incubation
  Growth response (turbidity): ++
[3]; [6]
  Growth response (turbidity): ++
[3]; [7]
  Growth response (turbidity): +
[3]; [8]
  Growth response (turbidity): ++
[3]; [9]
  Growth response (turbidity): ++
[3]; [10]
  Growth response (turbidity): −
[3]; [11]
  Growth response (turbidity): −
[3]; [12]
  Growth response (turbidity): −

## CC(O)C(=O)[O-].[Na+] (centres unmarked) [Na lactate, sodium lactate]
[3]; 10 g/L, 24 hours of incubation
  Growth response (turbidity): ++
[3]; 10 g/L, 48 hours of incubation
  Growth response (turbidity): ++
[3]; [4]
  Growth response (turbidity): ++
[3]; 20 g/L, 24 hours of incubation
  Growth response (turbidity): ++
[3]; 20 g/L, 48 hours of incubation
  Growth response (turbidity): ++
[3]; [5]
  Growth response (turbidity): ++
[3]; 50 g/L, 24 hours of incubation
  Growth response (turbidity): −
[3]; 50 g/L, 48 hours of incubation
  Growth response (turbidity): −
[3]; [6]
  Growth response (turbidity): −
[3]; [7]
  Growth response (turbidity): −
[3]; [8]
  Growth response (turbidity): −
[3]; [9]
  Growth response (turbidity): −
[3]; [10]
  Growth response (turbidity): −
[3]; [11]
  Growth response (turbidity): −
[3]; [12]
  Growth response (turbidity): −
